These results are taken from US20240252488A1 (KOREA RESEARCH INSTITUTE OF CHEMICAL TECHNOLOGY, priority 2020, published 2024).

The subject of assay [1] is FADD−/− Jurkat cells. Description: Necroptosis inhibition assay, TNF-α-induced necroptosis (CellTiter-Glo 2.0). Format: cell-based, human. The settings on record: TNF-α 15 ng/mL; for Necroptosis inhibition assay (Rescue %) 1 μM: compound 1 μM; for Necroptosis inhibition assay (Rescue %) 10 μM: compound 10 μM. The essentials: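 Necroptosis induced by 15 ng/mL TNF-α (final) for 20–24 h at 37 °C, after a 30 min room-temperature pretreatment of FADD-deficient Jurkat cells with 0.1, 1 or 10 μM compound. ATP-based luminescence gave viability, from which inhibition rate and cytotoxicity were derived.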

The target of assay [2] is T1, MLKL (Homo sapiens, UniProt Q8NB16).
T1 sequence (Q8NB16 1-471): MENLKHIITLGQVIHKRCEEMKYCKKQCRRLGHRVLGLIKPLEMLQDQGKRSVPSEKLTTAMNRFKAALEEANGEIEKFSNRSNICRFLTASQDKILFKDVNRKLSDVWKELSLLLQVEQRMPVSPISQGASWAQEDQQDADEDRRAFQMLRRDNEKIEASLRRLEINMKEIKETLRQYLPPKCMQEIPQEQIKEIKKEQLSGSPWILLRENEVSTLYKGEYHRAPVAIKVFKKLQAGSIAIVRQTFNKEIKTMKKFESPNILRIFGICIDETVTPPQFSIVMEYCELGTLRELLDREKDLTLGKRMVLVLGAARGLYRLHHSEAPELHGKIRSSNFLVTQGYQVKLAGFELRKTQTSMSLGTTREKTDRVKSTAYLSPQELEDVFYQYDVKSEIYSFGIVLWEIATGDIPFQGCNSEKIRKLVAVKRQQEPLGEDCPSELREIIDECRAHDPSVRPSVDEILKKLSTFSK
Put plainly: MLKL degradation assay in HepG2 cell line (western blot). The settings on record: cell line not given; for Degradation assay (Degradation %) 1 μM: compound 1 μM; for Degradation assay (Degradation %) 10 μM: compound 10 μM. Format: cell-based. Also on record: endogenous in cells; host or cells: HepG2 or HaCaT. Put shortly:
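Western blot chemiluminescence of MLKL in equal-protein lysates (10-15 μg, BCA-adjusted). Before lysis, HepG2 cells were exposed to 1 or 10 μM (final) test compound for 20-24 h at 37 °C.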
A general note: A western blot detects proteins with antibodies after separation by electrophoresis.

The target of assay [3] is T1, MLKL. Description: Measurement of binding affinity with MLKL receptor (competitive binding assay, Kd). Also on record: made in house; host or cells: HEK 293 cell line (T7 phage in E. coli BL21-derived host is also described). The essentials:
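MLKL was produced in HEK 293 cells and tagged with DNA for detection. Liganded beads were blocked with excess biotin and washed to cut non-specific binding, then compounds (111× DMSO stocks, 0.9% DMSO in assay) competed for binding. Eluate kinase was measured by qPCR for Kd.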

Regarding `Nc1ncc(-c2cnn(C3CCN(CC4CCN(C(=O)C5CCN(c6cccc7c6C(=O)N(C6CCC(=O)NC6=O)C7=O)CC5)CC4)CC3)c2)nc1C(=O)N[C@@H](C(=O)Nc1ccc(F)cc1)c1ccccc1` (stereo partly drawn) [TDH-209, 3-amino-6-(1-(1-((1-(1-(2-(2,6-dioxopiperidin-3-yl)-1,3-dioxoisoindolin-4-yl)piperidine-4-carbonyl)piperidin-4-yl)methyl)piperidin-4-yl)-1H-pyrazol-4-yl)-N-((R)-2-((4-fluorophenyl)amino)-2-oxo-1-phenylethyl)pyrazine-2-carboxamide], in assay [1], the “Necroptosis inhibition assay (Rescue %) 1 μM” value is 7.73% and the “Necroptosis inhibition assay (Rescue %) 10 μM” value came to 18.12%. Besides, the “Degradation assay (Degradation %) 1 μM” value in assay [2] amounted to 7.36%. In addition, in assay [3], the Kd stood at 140 nM.
`Nc1ncc(-c2cnn([C@H]3CCN(CC4CCN(C(=O)COc5ccc6c(c5)C(=O)N(C5CCC(=O)NC5=O)C6=O)CC4)C3)c2)nc1C(=O)OC(C(=O)Nc1ccc(F)cc1)c1ccccc1` (stereo partly drawn) [TDH-284, 2-((4-fluorophenyl)amino)-2-oxo-1-phenylethyl 3-amino-6-(1-((3S)-1-((1-(2-((2-(2,6-dioxopiperidin-3-yl)-1,3-dioxoisoindolin-5-yl)oxy)acetyl)piperidin-4-yl)methyl)pyrrolidin-3-yl)-1H-pyrazol-4-yl)pyrazine-2-carboxylate]: in assay [1], the “Necroptosis inhibition assay (Rescue %) 1 μM” value was found to be 75.95% and the “Necroptosis inhibition assay (Rescue %) 10 μM” value came to 52.77%. Besides, in assay [2], the “Degradation assay (Degradation %) 1 μM” value is listed as 42.05% and the “Degradation assay (Degradation %) 10 μM” value was 58.09%. In assay [3], this compound returned a Kd of 2.6 nM.
On to `Nc1ncc(-c2cn(C3CCN(CC4CCN(c5cccc6c5C(=O)N(C5CCC(=O)NC5=O)C6=O)CC4)CC3)nn2)nc1C(=O)OC(C(=O)Nc1ccc(F)cc1)c1ccccc1` (stereo not shown) [TDH-225, 2-((4-fluorophenyl)amino)-2-oxo-1-phenylethyl 3-amino-6-(1-(1-((1-(2-(2,6-dioxopiperidin-3-yl)-1,3-dioxoisoindolin-4-yl)piperidin-4-yl)methyl)piperidin-4-yl)-1H-1,2,3-triazol-4-yl)pyrazine-2-carboxylate], for which, in assay [1], the “Necroptosis inhibition assay (Rescue %) 1 μM” value came out at 55.04% and the “Necroptosis inhibition assay (Rescue %) 10 μM” value was found to be 49.01%. In assay [2], the “Degradation assay (Degradation %) 1 μM” value was 36.29% and the “Degradation assay (Degradation %) 10 μM” value is given as 25.24%. In assay [3], this compound yielded a Kd of 8 nM.
`Nc1ncc(-c2cnn(C3CCN(CCCC4CCN(C(=O)CCc5ccc6c(c5)C(=O)N(C5CCC(=O)NC5=O)C6=O)CC4)CC3)c2)nc1C(=O)O[C@@H](C(=O)Nc1ccc(F)cc1)c1ccccc1` (stereo partly drawn) [TDH-484, (R)-2-((4-fluorophenyl)amino)-2-oxo-1-phenylethyl 3-amino-6-(1-(1-(3-(1-(3-(2-(2,6-dioxopiperidin-3-yl)-1,3-dioxoisoindolin-5-yl)propanoyl)piperidin-4-yl)propyl)piperidin-4-yl)-1H-pyrazol-4-yl)pyrazine-2-carboxylate]: in assay [1] (FADD−/− Jurkat cells), the “Necroptosis inhibition assay (Rescue %) 1 μM” value was found to be 66.68% and the “Necroptosis inhibition assay (Rescue %) 10 μM” value worked out at 37.9%. In assay [2], the “Degradation assay (Degradation %) 1 μM” value was 89.17% and the “Degradation assay (Degradation %) 10 μM” value stood at 91.3%. Moreover, the Kd in assay [3] stood at 0.92 nM.
`Nc1ncc(-c2cnn(C3CCN(CC4CCN(CCC5CCN(c6cc7c(cc6F)C(=O)N(C6CCC(=O)NC6=O)C7=O)CC5)CC4)CC3)c2)nc1C(=O)O[C@@H](C(=O)Nc1ccc(F)cc1)c1ccccc1` (stereo partly drawn) [TDH-513, (R)-2-((4-fluorophenyl)amino)-2-oxo-1-phenylethyl 3-amino-6-(1-(1-((1-(2-(1-(2-(2,6-dioxopiperidin-3-yl)-6-fluoro-1,3-dioxoisoindolin-5-yl)piperidin-4-yl)ethyl)piperidin-4-yl)methyl)piperidin-4-yl)-1H-pyrazol-4-yl)pyrazine-2-carboxylate]: in assay [1] (FADD−/− Jurkat cells), the “Necroptosis inhibition assay (Rescue %) 1 μM” value is 14.47% and the “Necroptosis inhibition assay (Rescue %) 10 μM” value is given as −61.68%. Further, in assay [2], the “Degradation assay (Degradation %) 1 μM” value came out at 46.49% and the “Degradation assay (Degradation %) 10 μM” value amounted to 75.71%. For the same compound, the Kd in assay [3] was determined as 3.9 nM.
As to `Nc1ncc(-c2cnn(C3CCN(CCCCCCNC(=O)C4CCN(c5ccc6c(c5)C(=O)N(C5CCC(=O)NC5=O)C6=O)CC4)CC3)c2)nc1C(=O)O[C@@H](C(=O)Nc1ccc(F)cc1)c1ccccc1` (stereo partly drawn) [TDH-109, (R)-2-((4-fluorophenyl)amino)-2-oxo-1-phenylethyl 3-amino-6-(1-(1-(6-(1-(2-(2,6-dioxopiperidin-3-yl)-1,3-dioxoisoindolin-5-yl)piperidine-4-carboxamido)hexyl)piperidin-4-yl)-1H-pyrazol-4-yl)pyrazine-2-carboxylate], in assay [1], the “Necroptosis inhibition assay (Rescue %) 1 μM” value is given as 71.74% and the “Necroptosis inhibition assay (Rescue %) 10 μM” value was found to be 48.69%. Also, in assay [2], the “Degradation assay (Degradation %) 1 μM” value was 48.55% and the “Degradation assay (Degradation %) 10 μM” value was determined as 56.91%. The same compound displayed a Kd in assay [3] of 2.8 nM.
For `Nc1ncc(-c2cnn(C3CCN(CCC4CCN(C(=O)c5ccc(C(=O)NC6CCC(=O)NC6=O)cc5)CC4)CC3)c2)nc1C(=O)O[C@@H](C(=O)Nc1ccc(F)cc1)c1ccccc1` (stereo partly drawn) [TDH-536, (R)-2-((4-fluorophenyl)amino)-2-oxo-1-phenylethyl 3-amino-6-(1-(1-(2-(1-(4-((2,6-dioxopiperidin-3-yl)carbamoyl)benzoyl)piperidin-4-yl)ethyl)piperidin-4-yl)-1H-pyrazol-4-yl)pyrazine-2-carboxylate], in assay [1] (FADD−/− Jurkat cells), the “Necroptosis inhibition assay (Rescue %) 1 μM” value worked out at 31.84% and the “Necroptosis inhibition assay (Rescue %) 10 μM” value stood at 21.93%. Further, in assay [2], the “Degradation assay (Degradation %) 1 μM” value was determined as 46.11% and the “Degradation assay (Degradation %) 10 μM” value was determined as 56.40%. In assay [3], this compound returned a dissociation constant (Kd) of 0.22 nM.
On to `Nc1ncc(-c2cnn(C3CCN(CCC4CCN(C(=O)COc5cccc6c5C(=O)N(C5CCC(=O)NC5=O)C6=O)CC4)CC3)c2)nc1C(=O)O[C@@H](C(=O)Nc1ccc(F)cc1)c1ccccc1` (stereo partly drawn) [TDH-200, (R)-2-((4-fluorophenyl)amino)-2-oxo-1-phenylethyl 3-amino-6-(1-(1-(2-(1-(2-((2-(2,6-dioxopiperidin-3-yl)-1,3-dioxoisoindolin-4-yl)oxy)acetyl)piperidin-4-yl)ethyl)piperidin-4-yl)-1H-pyrazol-4-yl)pyrazine-2-carboxylate], for which, in assay [1], the “Necroptosis inhibition assay (Rescue %) 1 μM” value is 76.41% and the “Necroptosis inhibition assay (Rescue %) 10 μM” value turned out to be 44.64%. In assay [2], the “Degradation assay (Degradation %) 1 μM” value is given as 74.03% and the “Degradation assay (Degradation %) 10 μM” value was 60.19%. The compound also registered a Kd in assay [3] of 1 nM.
As for `Nc1ncc(-c2cnn(C3CCN(C[C@H]4CC[C@H](CNC(=O)Cc5cccc(NC6=CC(=O)N(C7CCC(=O)NC7=O)C6=O)c5)CC4)CC3)c2)nc1C(=O)O[C@@H](C(=O)Nc1ccc(F)cc1)c1ccccc1` (stereo partly drawn) [TDH-498, (R)-2-((4-fluorophenyl)amino)-2-oxo-1-phenylethyl 3-amino-6-(1-(1-(((1r,4r)-4-((2-(3-((1-(2,6-dioxopiperidin-3-yl)-2,5-dioxo-2,5-dihydro-1H-pyrrol-3-yl)amino)phenyl)acetamido)methyl)cyclohexyl)methyl)piperidin-4-yl)-1H-pyrazol-4-yl)pyrazine-2-carboxylate], in assay [1] (FADD−/− Jurkat cells), the “Necroptosis inhibition assay (Rescue %) 1 μM” value was determined as 23.9% and the “Necroptosis inhibition assay (Rescue %) 10 μM” value is 16.6%. In addition, in assay [2], the “Degradation assay (Degradation %) 1 μM” value is recorded as 86.68% and the “Degradation assay (Degradation %) 10 μM” value is listed as 89.27%. The Kd in assay [3] came to 3.7 nM.
As to `Nc1ncc(-c2cnn(C3CCN(CC4CCN(C(=O)COc5ccc6nnn(C7CCC(=O)NC7=O)c(=O)c6c5)CC4)CC3)c2)nc1C(=O)O[C@@H](C(=O)Nc1ccc(F)cc1)c1ccccc1` (stereo partly drawn) [TDH-169, (R)-2-((4-fluorophenyl)amino)-2-oxo-1-phenylethyl 3-amino-6-(1-(1-((1-(2-((3-(2,6-dioxopiperidin-3-yl)-4-oxo-3,4-dihydrobenzo[d][1,2,3]triazin-6-yl)oxy)acetyl)piperidin-4-yl)methyl)piperidin-4-yl)-1H-pyrazol-4-yl)pyrazine-2-carboxylate], in assay [1], the “Necroptosis inhibition assay (Rescue %) 1 μM” value is on record as 68.09% and the “Necroptosis inhibition assay (Rescue %) 10 μM” value is 50.74%. Further, in assay [2], the “Degradation assay (Degradation %) 1 μM” value amounted to 71.77% and the “Degradation assay (Degradation %) 10 μM” value is given as 58.09%. This compound also displayed a dissociation constant (Kd) in assay [3] of 2 nM.

Usually Kd stands for the equilibrium constant for the complex coming apart.
